For assay [1], the system named is NCI-H522. In words: Cytotoxicity against human NCI-H522 cells. In kind it is functional. The conditions noted are these: for GI50: read-out: Log10GI50 (converted); for CC50: read-out: Log10LC50 (converted); for TGI: read-out: Log10TGI (converted).
For assay [2], the system named is CCRF-CEM. As to the kind of experiment: Cytotoxicity against human CCRF-CEM cells. The class given is functional. The conditions noted are these: for GI50: read-out: Log10GI50 (converted); for TGI: read-out: Log10TGI (converted).

As to `C/C(=C\Cc1cc(O)ccc1O)CCc1c(C)cc(O)c(C=O)c1C` [PANICEIN B3], in assay [1], the GI50 was 10 µM, the CC50 was 55 µM and the TGI is 23.4 µM. For the same compound, in assay [2], the GI50 is 4.47 µM and the TGI is 30.2 µM.

`COc1cc(C)c(CC/C(C)=C/Cc2cc(O)ccc2O)c(C)c1C` [PANICEIN A HYDROQUINONE]: in assay [2], the GI50 was 7.76 µM and the TGI is over 25.1 µM. Also, the CC50 in assay [2] (read-out: Log10LC50 (converted)) is over 25.1 µM.

Take `C/C(=C\Cc1cc(O)ccc1O)CCc1c(C)c(O)c(O)c(C=O)c1C` [PANICEIN C]: in assay [1], the GI50 was 5.25 µM, the CC50 was 63.1 µM and the TGI was 21.4 µM. Moreover, in assay [2], the GI50 was 3.31 µM and the TGI is 9.55 µM.
